How the values were obtained:
Format in all cases: in vivo
soybean (cv Bayfield) = assay: Leaf area and shoot dry weight of soybean after LCO spray, greenhouse; settings: seven days after treatment
Method: Soybean (cv Bayfield) seeds were surface sterilized with 2% sodium hypochlorite for 3-4 minutes, washed with several changes of sterile distilled water and germinated in plastic trays containing sterile vermiculite. Seedlings at the two-leaf stage, about seven days of planting, were transplanted into 15 cm plastic pots containing promix (Premier Brands Inc., New Rochelle, N.Y., USA). Pots were placed in a greenhouse maintained at 25±2° C. with a day/night cycle of 16/8 h. Plants were watered as required.
(§1) Concentrations of LCO (10^−6 M-10^−12 M) were made with distilled water containing 0.02% Tween 20. A control treatment, containing 0.02% Tween 20, but no LCO was also applied. Since the rates of growth and development differed among the plant species used in the experiments, spray treatment was conducted at different times after planting In general, the spray was applied when the plants were big enough to allow easy measurements of leaf photosynthetic rates. The following are the ages of the plants when the sprays were conducted: soybean 21 days after planting (DAP), corn 25 DAP, rice 45 DAP, melon (35 DAP) and canola 30 DAP. The plants were sprayed with LCO solutions until dripping. The sprays were applied with an atomizer (Nalgene, USA). Each plant required 2-3 mL of spray solution. Each treatment was replicated at least five times and organized on the green house bench in a randomized complete block design. Each experiment (with each crop species) was repeated at least twice.
(§2) Photosynthesis was recorded every 24 h using a Li-Cor 6400 portable photosynthesis system (Li-Cor Inc., Lincoln, Neb., USA) for 6 days. In the case of soybean the photosynthesis in the second nodal leaf from the top was recorded while in the other species used in the photosynthetic rate was measured for the top-most fully expanded leaf. Soybean plants were harvested after seven days of LCO treatment and dried at 80° C. for 48 h. Data were analyzed with the Statistical Analysis System (SAS Inc., N.C., USA). Percent increase in photosynthesis over the control was calculated.

[1] = tested on: corn (Zea mays cv Pioneer 3921); assay: Photosynthesis of corn after LCO spray, greenhouse
Method: (§3) Seeds of rice (Oryza sativa cv Cypress), canola (Brassica napus cv Springfield), corn (Zea mays cv Pioneer 3921) and melon (Cucumis melo cv Nova) were surface sterilized with 2% sodium hypochlorite for 3-4 min, washed with several changes of sterile distilled water and planted in plastic pots (15 cm dia) containing promix (Premier Brands Inc., New Rochelle, N.Y., USA).
as §1, §2

[2] = tested on: melon (Cucumis melo cv Nova); assay: Photosynthesis of melon after LCO spray, greenhouse
Method: as §3, §1, §2

apple (cv Empire) = assay: Photosynthesis of field-grown apple after LCO spray
Method: These experiments were conducted at the horticultural research facility of McGill University, Ste-Anne-de-Bellevue, Quebec, Canada during July 2000. LCO of different concentrations (10^−8, and 10^−10M) were prepared as described above. Branches of apple (cv Empire) and Grapes (cv De Chaunac) were sprayed with LCO and the photosynthesis was observed every 24 h for five days with a Li-Cor 6400 portable photosynthesis system (Li-Cor Inc., USA). Each treatment was applied to three branches from the same plant. Care was taken to ensure that the branches were on the same level and orientation. Part of each branch was sprayed with LCO and the remaining part served as a control. The control portion of the branch was sprayed with distilled water containing the same amount of Tween 20 as the LCO treatment solution. Observations were taken on 15 leaves per replicate for each treatment. For both apple and grape the entire procedure was repeated twice on two different plants.

[3] = tested on: soybean (cv OAC Bayfield); assay: Photosynthesis of soybean under field conditions (1999)
Method: The soybean experiment was conducted at the Lods Agronomy Research Centre, McGill University, Macdonald Campus, Ste-Anne-de-Bellevue, Quebec, Canada during the period June to September, 1999. A randomized complete block design with three blocks was followed. The plot size was 2×4 m with a row to row spacing of 25 cm and 10 cm between plants within a row. Seeds of soybean (cv OAC Bayfield), treated with commercial Bradyrhizobium japonicum inoculant (Bios Agriculture Inc., Quebec, Canada) at the rate of 3 g per kilogram of seed, were hand planted.
At 25 days after planting twenty plants in each plot were randomly marked and sprayed until dripping with LCO solutions (10^−6, 10^−8 and 10^−10M) containing 0.02% Tween 20 with a hand sprayer. The plants on either side, within the row, of the marked plants were also sprayed. A second spray was carried out at flowering stage and a third spray at pod filling.
As with the indoor experiments, photosynthetic readings were taken every day for five days after the application of LCO. For soybean additional developmental and agronomic data were collected. The first harvest was conducted at 25 days after the first spray treatment. Five plants were harvested from each plot and the following growth variables were analyzed: plant height, number of branches, number of leaves, leaf area, number of flower clusters, number of pods, number of nodules, dry weights of leaves, stem and roots. The final harvest was conducted after physiological maturity of the plants (Fehr et al., 1971); at this time the remaining fifteen treated plants from each plot were harvested and data on number of branches, number of pods, number of seeds and grain yield per plant was collected.

Nod Bj V (C18:1, MeFeu)
Leaf area (soybean (cv Bayfield); 10^−6 M): 223.6 cm^2
Shoot dry weight (soybean (cv Bayfield); 10^−6 M): 1065.8 mg
Leaf area (soybean (cv Bayfield); 10^−7 M): 193.6 cm^2
Shoot dry weight (soybean (cv Bayfield); 10^−7 M): 1135.2 mg
Leaf area (soybean (cv Bayfield); 10^−8 M): 217.6 cm^2
Shoot dry weight (soybean (cv Bayfield); 10^−8 M): 1095.7 mg
Leaf area (soybean (cv Bayfield); 10^−9 M): 194.3 cm^2
Shoot dry weight (soybean (cv Bayfield); 10^−9 M): 999.9 mg
Leaf area (soybean (cv Bayfield); 10^−10 M): 195.3 cm^2
Shoot dry weight (soybean (cv Bayfield); 10^−10 M): 1012.3 mg
Leaf area (soybean (cv Bayfield); 10^−11 M): 202.6 cm^2
Shoot dry weight (soybean (cv Bayfield); 10^−11 M): 931.6 mg
Leaf area (soybean (cv Bayfield); 10^−12 M): 230.3 cm^2
Shoot dry weight (soybean (cv Bayfield); 10^−12 M): 1060.8 mg
shoot dry weights vs control plants (soybean (cv Bayfield); p<0.05): higher
leaf areas vs control plants (soybean (cv Bayfield); p=0.09): only increased numerically
leaf internal CO2 concentration [1]: decreased
stomatal aperture [1]: did not significantly alter
increase in photosynthesis ([1]; in general): 10-20%
intercellular CO2 concentration [2]: unaffected
stomatal conductance [2]: increases
transpiration [2]: increases
increase in photosynthesis ([2]; in general): 10-20%
Ci (apple (cv Empire)): without any effect
stomatal conductance (apple (cv Empire)): increases
transpiration (apple (cv Empire)): increased
photosynthetic rate (apple (cv Empire); 10^−8 M LCO, five days after treatment): 14.1 μmol CO2 m^−2s^−1
stomatal conductance [3]: increases
transpiration [3]: increased
photosynthetic rate ([3]; 10^−6 M, day three): 24 µmol m^−2 s^−1
